Starred links: 1 amine or outer side, 2 acyl side, 3 side chain; linkers in the order of their positions; H or OH if unused. Positions of bridges follow the written chain, without caps; N, C: chain ends. Non-standard residues stand in square brackets, D forms with d. Residues, ends and D or L forms follow the SMILES beside them. Chains are numbered I, II in the order given. Actinocin(9to1) = Cc1c2oc3c(C)ccc(C(=O)[*:1])c3nc-2c(C(=O)[*:2])c(N)c1=O; NMeV = CN[C@H](C(=O)O)C(C)C; Sar = CNCC(=O)O
Columns and labels:
[1] = test system: HEK293 CMV-Luciferase cells; test: Cell viability (Hoechst staining) in HEK293 CMV-Luciferase cells; conditions: for cell viability (Hoechst) (FIG. 2D): HEK293 CMV-Luciferase cell line, 1 μM; for cell viability (Hoechst-staining): HEK293 CMV-Luciferase line, 2-day incubation, actinomycin D, puromycin, 119113 10 μM, DB2313 2.5 μM
Experimental: Assays were conducted for percent luminescence and cell viability (Hoechst-staining) after a 2-day incubation under the following conditions. As negative controls pure DMSO and “mock” conditions (where nothing is added to the cells) were used.

[2] = test system: HEK293 CMV-Luciferase cells; test: Luminescence in HEK293 CMV-Luciferase control line (luciferase quencher counter-screen); type: cell-based
Excerpt: The IACS Selleck Known Bioactive library (2,100 compounds) was screened and there 35 hits were identified (˜1.7% hit rate), the Asinex1 library (12,000 compounds) was screened and 60 hits were identified (˜0.5% hit rate), and the ChemDiv6 library (44,000 compounds) was screened and 169 hits were identified (˜0.4% hit rate). The Selleck library contains drugs approved by the United States Food and Drug Administration (FDA) with known intracellular mechanisms of action which will give instant insight into pathways that block PU.1 activity. The Asinex1 and ChemDiv6 libraries contain molecules with unknown biological properties, but with low toxicity, high stability, and a broad structural diversity used to generate structure-activity-relationships (SAR) of the PU.1 inhibitors. SAR is used to design new drug libraries containing only molecules with similar structures as previous hits. In order to obtain the SAR, three rounds of validation were performed. In round 1, false-positive, non-specific luciferase quencher molecules were excluded using the commercially available HEK293 CMV-Luciferase line that constitutively expresses luciferase under the CMV promoter. In round 2, weak (non-significant) hits were eliminated according to degree of PU.1 inhibition in the absence of cell death. In round 3, drugs were selected that reduce PU.1-dependent gene expression with RT-qPCR.

[3] = test system: PU.1 dependent gene expression; test: RT-qPCR of mRNA levels in BV2 PU.1-Luciferase cells (validation round 3); type: cell-based, mouse; conditions: 2-day treatment
Experimental: The Asinex1 and ChemDiv6 libraries contain molecules with unknown biological properties, but with low toxicity, high stability, and a broad structural diversity used to generate structure-activity-relationships (SAR) of the PU.1 inhibitors. […] In order to obtain the SAR, three rounds of validation were performed. In round 1, false-positive, non-specific luciferase quencher molecules were excluded using the commercially available HEK293 CMV-Luciferase line that constitutively expresses luciferase under the CMV promoter. In round 2, weak (non-significant) hits were eliminated according to degree of PU.1 inhibition in the absence of cell death. In round 3, drugs were selected that reduce PU.1-dependent gene expression with RT-qPCR.

PU.1 [4] = target: T1, PU.1 (Mus musculus, UniProt P17433); test: Luciferase assay (luminescence) in BV2 PU.1-Luciferase reporter cells; type: cell-based; conditions: BV2 PU.1-Luciferase cells, 1 μM
T1 construct: endogenous in cells; host or cells: BV2 PU.1-Luciferase (mouse microglial BV2 with a 5xLBB-luciferase reporter integrated at ROSA26)

PU.1 [5] = target: T1, PU.1; test: as above; type: cell-based; conditions: for IC50: luminescence reduction in BV2 PU.1-Luciferase cells, concentration-response, Hill's equation
Excerpt: PU.1 belongs to a group of transcription factors that all bind to the middle 5′-GGAA-3′ sequence. The flanking A/T rich sequence is crucial for conferring PU.1 selective binding. The flanking sequence requires unique structural properties of PU.1 and can therefore be targeted by drugs acting as allosteric inhibitors that prevent PU.1 from binding to the LBB. In order to achieve robust PU.1 binding, five tandem copies of the LBBs (5×LBB) were inserted into the luciferase promoter of the pGL4.23 plasmid. The region containing the five LBBs (5×LBB) was then subcloned into the pROSA26-1 plasmid (together with a PGKneo bpA plasmid for Neomycin/G418 resistance) that allows stable integration in chromosome 6 of the immortalized mouse microglial BV2 cell line (FIG. 2B). The stable cell line was created by selection with G418.
The BV2 PU.1-Luciferase cells (referred to as “cells” from here onward) were plated into a 384-well plate, using an automatic dispenser, 2000 cells per well in 30 μL of media composed of RPMI (Sigma-Aldrich), 10% FBS, 1% PenStrep (50 mg/mL) and 1% G418 (50 mg/mL) was plated. A robotic arm was used to transfer compounds in a 384-well format using a pin array into the plate containing the cells (here, 33 nL was transferred from a drug library containing 10 mM concentration of drugs for a final concentration of 10 μM per well). For reproducibility, each pin array with 384 compounds was added to 4 plates of cells. […] Subsequently, automatic of 30 μL of BrightGlo (Promega) was dispensed into 2 of the 4 plates, in order to lyse the cells and drive the luminescence reaction whereafter the luminescence intensity was measured by a plate reader (Perkin Elmer EnVision). The two other plates were fixed by automatically dispensing 30 μL of 10% formaldehyde with 2μL Hoechst per 1 mL formaldehyde which were left at room temperature for one hour, followed by plate reading (Acumen (TTPLabTech)). A compound transfer and treatment would be repeated if reproducibility between the luminescence plates and/or the fixed Hoechst plates was lacking. The drugs were selected and ranked according to the criteria described in FIG. 13. Luminescence values used were corrected for crosstalk. Hoechst values were total fluorescence area per well. Determination of a positive hit considered both the reduction of luminescence as well as a possible confounding reduction in cell viability. The formula used was y=(value−meanvalue)/stddev. […] Compounds were excluded if cell viability was reduced >2 standard deviations from the mean, using the same formula. The positive hits were then validated in multiple steps in order to identify true PU.1 inhibitors.
The degree of luminescence reduction of the hits was plotted with significant effective area under the curve in order to obtain an IC50.

[6] = test system: BV2 PU.1-Luciferase cells; test: Cell viability (Hoechst staining) in BV2 PU.1-Luciferase cells; type: cell-based, mouse
Experimental: The BV2 PU.1-Luciferase cells (referred to as “cells” from here onward) were plated into a 384-well plate, using an automatic dispenser, 2000 cells per well in 30 μL of media composed of RPMI (Sigma-Aldrich), 10% FBS, 1% PenStrep (50 mg/mL) and 1% G418 (50 mg/mL) was plated. […] For reproducibility, each pin array with 384 compounds was added to 4 plates of cells. The cells and compounds were incubated at 37° C. for a period of time sufficient for the compounds to have an effect on the cells (about 2 days). Subsequently, automatic of 30 μL of BrightGlo (Promega) was dispensed into 2 of the 4 plates, in order to lyse the cells and drive the luminescence reaction whereafter the luminescence intensity was measured by a plate reader (Perkin Elmer EnVision). The two other plates were fixed by automatically dispensing 30 μL of 10% formaldehyde with 2μL Hoechst per 1 mL formaldehyde which were left at room temperature for one hour, followed by plate reading (Acumen (TTPLabTech)). A compound transfer and treatment would be repeated if reproducibility between the luminescence plates and/or the fixed Hoechst plates was lacking. […] Luminescence values used were corrected for crosstalk. Hoechst values were total fluorescence area per well. Determination of a positive hit considered both the reduction of luminescence as well as a possible confounding reduction in cell viability. […]

| Compound | cell viability (Hoechst) (FIG. 2D) [1] | cell viability (Hoechst-staining) [1] | luminescence (FIG. 2D) ([2]; HEK293 CMV-Luciferase cell line, 1 μM) | percent luminescence ([2]; HEK293 CMV-Luciferase line, 2-day incubation, 119113 10 μM, DB2313 2.5 μM) | mRNA levels Apoe [3] | mRNA levels IL1β [3] | mRNA levels Lucif. [3] | mRNA levels Spi1 [3] | mRNA levels Trem2 [3] | mRNA levels Tyrobp [3] | luminescence (FIG. 2D) (PU.1 [4]) | percent luminescence (PU.1 [5]; BV2 PU.1-Luciferase line, 2-day incubation, 119113 10 μM, DB2313 2.5 μM) | IC50 (PU.1 [5]) [nM] | cell viability (Hoechst) (FIG. 2D) ([6]; BV2 PU.1-Luciferase cells, 1 μM) | cell viability (Hoechst-staining) ([6]; BV2 PU.1-Luciferase line, 2-day incubation, actinomycin D, puromycin, 119113 10 μM, DB2313 2.5 μM) |
| --- | --- | --- | --- | --- | --- | --- | --- | --- | --- | --- | --- | --- | --- | --- | --- |
| COc1ccc(C[C@H](N)C(=O)N[C@H]2[C@@H](O)[C@H](n3cnc4c(N(C)C)ncnc43)O[C@@H]2CO)cc1 [puromycin] | ineffective | resistant | – | – | – | – | – | – | – | – | – | – | – | – | – |
| CC(C)N=C(N)c1ccc2nc(-c3ccc(OCc4cccc(COc5ccc(-c6nc7ccc(C(N)=NC(C)C)cc7[nH]6)cc5)c4F)cc3)[nH]c2c1 [DB2313, reference compound] | only in the BV2 PU.1-Luciferase line | no effect | only in the BV2 PU.1-Luciferase line | no effect | 0.600 multiples of 1× | 0.460 multiples of 1× | 0.340 multiples of 1× | 0.820 multiples of 1× | 1.030 multiples of 1× | 1.030 multiples of 1× | reduced luminescence | reduction in luminescence | – | – | – |
| CCOc1ccc(-c2nc(CSCC(=O)NCc3ccc(Cl)cc3)c(C)o2)cc1 [Compound 2H3] | – | – | – | – | 1.111 multiples of 1× | 0.915 multiples of 1× | 0.722 multiples of 1× | 0.897 multiples of 1× | 0.986 multiples of 1× | 1.003 multiples of 1× | – | – | 734 | – | – |
| COc1ccc(NS(=O)(=O)c2ccc3c(c2)CCCN3C(=O)C2CCC2)cc1OC [Compound 2F7] | – | – | – | – | 1.146 multiples of 1× | 0.460 multiples of 1× | 0.216 multiples of 1× | 0.936 multiples of 1× | 1.442 multiples of 1× | 1.498 multiples of 1× | – | – | 1420 | – | – |
| Cc1c2oc3c(C)ccc(C(=O)N[C@@H]4C(=O)N[C@H](C(C)C)C(=O)N5CCC[C@H]5C(=O)N(C)CC(=O)N(C)[C@@H](C(C)C)C(=O)O[C@@H]4C)c3nc-2c(C(=O)N[C@@H]2C(=O)N[C@H](C(C)C)C(=O)N3CCC[C@H]3C(=O)N(C)CC(=O)N(C)[C@@H](C(C)C)C(=O)O[C@@H]2C)c(N)c1=O [Actinomycin D] (I: T[dV]P[Sar][NMeV] / II: T[dV]P[Sar][NMeV]; ester I:1-I:C, II:1-II:C; linker I:N-II:N via Actinocin(9to1)) | toxic | reduced cell viability | – | – | – | – | – | – | – | – | – | – | – | toxic | reduced cell viability |
| CCCC(=O)Nc1nnc(SCc2cc(=O)c3ccc(C)cc3[nH]2)s1 [Compound 2E6] | – | – | – | – | 1.170 multiples of 1× | 0.810 multiples of 1× | 0.379 multiples of 1× | 1.046 multiples of 1× | 1.262 multiples of 1× | 1.347 multiples of 1× | – | – | 1620 | – | – |

Reference: patent US20220340983A1, “SYSTEMS AND ASSAYS FOR IDENTIFYING PU.1 INHIBITORS” (Massachustts Institute of Technology, priority 2019, published 2022)
